Test results published in US20240173289A1, “USE OF OXYMETHYL-MODIFIED DERIVATIVE OF QUERCETIN IN PREPARATION OF DRUG FOR INHIBITING TUMOR CELL PROLIFERATION” (ZHEJIANG UNIVERSITY, priority 2021, published 2024).

Experiments:
HepG2 = assay: apoptosis, AnnexinV-FITC/PI flow cytometry; assay type: cell-based; conditions: 24 h, dosage not given
Excerpt: (§1) The tumor cells growing in the logarithmic phase were digested with trypsin, collected by centrifugation to prepare a suspension, the cells were counted and adjusted to a certain concentration (6×10^5 cells per mL for AGS, T47D, Caco2, BCPAP, GES, HUVEC; 5×10^5 cells per mL for HepG2, MDA-MB-231, BGC-823, A549, PC3, L02; 3×10^5 cells per mL for 143B, HOS, U2, SGC-7901, Hela, BV-2; 1.8×10^6 cells per mL for WI-38), and the cells at a certain concentration were transferred to a 6-well plate at a concentration of 1 mL per well. The cells were cultured in a cell culture incubator for 12 h to allow the cells to adhere to the wall. The corresponding dosages of a quercetin 3,3′-dimethyl ether solution were added (the dosage of osteosarcoma cells was 143B: 4 mg/L, HOS: 4 mg/L, U2: 10 mg/L; the dosage of breast cancer cells was MDA-MB-231: 2 mg/L, T47D: 3 mg/L; the dosage of gastric cancer cells was SGC7901: 6 mg/L, BGC823: 5 mg/L, AGS: 3 mg/L; the dosage of cervical cancer Hela cells was 2 mg/L; the dosage of lung cancer cell A549 was 3 mg/L; the dosage of intestinal cancer cells Caco2 was 4 mg/L; the dosage of mouse glioma BV2 was 4 mg/L; the dosage of human prostate cancer cells PC3 was 6 mg/L; and the dosage of human thyroid cancer cells BCPAP was 2 mg/L). While DMSO was used as a solvent control, and then incubated for 24 h. After acting for 24 h, the cells were collected by centrifugation at 300 g, 4° C. for 5 min, a supernatant was discarded, and the cells were washed twice with pre-cooled PBS, each time with centrifugation at 300 g, 4° C. for 5 min. (1˜5)×10^5 cells were collected and resuspended in […] 1× BindingBuffer. 5 μl of AnnexinV-FITC and 5 μl of PI were added, and mixed well gently. The cells were reacted at room temperature for 10 min in the dark. 400 μl of 1× Binding Buffer was added, mixed well, and the samples were detected by flow cytometry within 1 h. The analysis was conducted according to a standard detection procedure of flow cytometry, at an excitation wavelength of 488 nm, and 20,000 cells were counted, and obtained results were analyzed with cell cycle fitting software ModFit.

[1] = system: breast cancer cells MDA-MB-231; assay: apoptosis, AnnexinV-FITC/PI flow cytometry; assay type: cell-based; conditions: 2 mg/L, 24 h
Excerpt: as §1

breast cancer cells T47D = assay: apoptosis, AnnexinV-FITC/PI flow cytometry; assay type: cell-based; conditions: 3 mg/L, 24 h
Excerpt: as §1

[2] = system: cervical cancer Hela cells; assay: apoptosis, AnnexinV-FITC/PI flow cytometry; assay type: cell-based; conditions: 2 mg/L, 24 h
Excerpt: as §1

gastric cancer cells AGS = assay: apoptosis, AnnexinV-FITC/PI flow cytometry; assay type: cell-based; conditions: 3 mg/L, 24 h
Excerpt: as §1

[3] = system: gastric cancer cells BGC-823; assay: apoptosis, AnnexinV-FITC/PI flow cytometry; assay type: cell-based; conditions: 5 mg/L, 24 h
Excerpt: as §1

[4] = system: human prostate cancer cells PC3; assay: apoptosis, AnnexinV-FITC/PI flow cytometry; assay type: cell-based; conditions: 6 mg/L, 24 h
Excerpt: as §1

[5] = system: intestinal cancer cells Caco2; assay: apoptosis, AnnexinV-FITC/PI flow cytometry; assay type: cell-based; conditions: 4 mg/L, 24 h
Excerpt: as §1

lung cancer cell A549 = assay: apoptosis, AnnexinV-FITC/PI flow cytometry; assay type: cell-based; conditions: 3 mg/L, 24 h
Excerpt: as §1

mouse glioma BV2 = assay: apoptosis, AnnexinV-FITC/PI flow cytometry; assay type: cell-based; conditions: BV-2; 4 mg/L; 24 h
Excerpt: as §1

osteosarcoma cells 143B = assay: apoptosis, AnnexinV-FITC/PI flow cytometry; assay type: cell-based; conditions: 4 mg/L, 24 h
Excerpt: as §1

osteosarcoma cells HOS = assay: apoptosis, AnnexinV-FITC/PI flow cytometry; assay type: cell-based; conditions: 4 mg/L, 24 h
Excerpt: as §1

[6] = system: HepG2 transplanted tumors; assay: proliferation of HepG2 transplanted tumors in nude mice in vivo; design: species or system BALB/c nude mice; conditions: 50 mg/kg bw·d intraperitoneal
Protocol: BALB/c nude mice (5 to 6 weeks old), weighing 19 g to 22 g, were purchased from Shanghai Experimental Animal Center, Chinese Academy of Sciences. HepG2 cells were collected in a serum-free DMEM medium to make a cell suspension, and then the cell suspension was injected into an underarm area of each mouse, approximately 2.0×10^6 cells, one site per mouse. All mice were bred in the Experimental Animal Center of Zhejiang University, under the environment of 23° C. to 25° C., humidity 50% to 60%, and cycle of 12 h light illumination/dark 12 h. After tumor formation, the mice were randomly divided into 3 groups with 7 mice in each group. The model group was given saline by intraperitoneal injection; the positive drug group was given tegafur at 10 mg/kg bw·d by intraperitoneal injection; the treatment group was intraperitoneally injected with the quercetin 3,3′-dimethyl ether at 50 mg/kg bw·d. According to the change of tumor volume, after the tumor formed, intraperitoneal injection was conducted every 1 d to 2 d, the tumor volume was measured, and the body weight of the mice was weighed. When there was a significant difference in tumor volume between different treatment groups, the mice were sacrificed by cervical dislocation, and the tumor tissue was carefully peeled off, weighed, and calculated. The formulas were: tumor formation rate (%)=(number of tumor-forming mice in treatment group/number of tumor-forming mice in inoculation group)×100; tumor inhibition rate (%)=(average tumor weight in control group (g)−average tumor weight in administration group (g))/average tumor weight in control group (g)×100. Serum, liver, spleen, and kidney were collected and weighed.

COc1cc(-c2oc3cc(O)cc(O)c3c(=O)c2OC)ccc1O [Quercetin 3,3′-dimethyl ether, quercetin 3,3′-dimethyl ether]
Treatment apoptosis ratio % (HepG2): 32.36 ± 5.26 % | Treatment apoptosis ratio % [1]: 29.85 ± 4.49 % | Treatment apoptosis ratio % (breast cancer cells T47D): 16.98 ± 1.37 % | Treatment apoptosis ratio % [2]: 20.05 ± 4.31 % | Treatment apoptosis ratio % (gastric cancer cells AGS): 29.47 ± 2.25 % | Treatment apoptosis ratio % [3]: 26.68 ± 3.45 % | Treatment apoptosis ratio % [4]: 21.13 ± 5.11 % | Treatment apoptosis ratio % [5]: 22.81 ± 3.72 *^ % | Treatment apoptosis ratio % (lung cancer cell A549): 20.28 ± 3.23 % | Treatment apoptosis ratio % (mouse glioma BV2): 18.65 ± 0.39 % | Treatment apoptosis ratio % (osteosarcoma cells 143B): 24.72 ± 2.82 % | Treatment apoptosis ratio % (osteosarcoma cells HOS): 23.09 ± 4.36 % | tumor weight, lower than that of the control group [6]: 52.19% | tumor volume ([6]; day 24, 10 injections, HepG2 nude mice): 284.19±85.47 mm^3 | tumor weight ([6]; tumor peeled off at sacrifice): 194.57 ± 75.45 mg
